Laboratory results: patent publication US20140248347A1 (PFIZER INC., priority 2011, published 2014)

Assay: Susceptibility of axitinib API to degradation found during drug development
Type: physicochemical
Details: active pharmaceutical ingredient

**Q.** For CNC(=O)c1ccccc1Sc1ccc2c(/C=C/c3ccccn3)n[nH]c2c1 [axitinib, N-methyl-2-[3-((E)-2-pyridin-2-yl-vinyl)-1H-indazol-6-ylsulfanyl]-benzamide], which “susceptibility to degradation, including photodegradation” value is on record?
**A.** The value was “highly susceptible to degradation, including photodegradation”.
